How the values were obtained:
hemolysis model mice [1] = conditions: cilastatin 400 mg/kg i.p. at 0, 3 and 6 h after phenylhydrazine, kidneys at 24 h, immunostaining (FIG. 5)
Protocol: Twenty-four hours after phenylhydrazine dosing, a portion containing a renal pedicle was sliced to 3 mm thickness from the right kidney and fixed with 4% paraformaldehyde phosphate buffer.
(§1) In line with Test Example 1, 1 mg/10 g of phenylhydrazine was given to C57BL/6 (male, aged 10-12 weeks), thereby constructing hemolysis model mice.
(§2) To the hemolysis models, a) 400 mg/kg (diluted in 100 μL, of normal saline) of cilastatin (Sigma-Aldrich Inc.), or b) 100 μL, of normal saline was intraperitoneally administered at the time of phenylhydrazine dosing, 3 hours after the dosing, and 6 hours after the dosing.

hemolysis model mice [2] = conditions: cilastatin 400 mg/kg i.p. at 0, 3 and 6 h after phenylhydrazine, kidneys at 24 h, immunostaining (FIG. 7)
Protocol: as §1, §2
In the present test example, thinly sliced fixed samples obtained from the remaining right kidney of the same animal were immunostained (500-fold diluted) using an anti-α1M antibody (Gene Tex: GTX101068).

hemolysis model mice [3] = conditions: cilastatin 400 mg/kg i.p. at 0, 3 and 6 h after phenylhydrazine, vs normal saline control group (FIG. 1)
Protocol: Phenylhydrazine (97% phenylhydrazine, Sigma-Aldrich Inc.) was dissolved in PBS in a concentration of 5 mg/ml to prepare a PBS solution, and the solution was intraperitoneally given to C57BL/6 mice (male, aged 10-12 weeks) so that the dose of phenylhydrazine was 1 mg/10 g, thereby constructing homolysis models.
as §2, with “μL” for “μL,”, “dosing. For each a) and b), 6 mice were used.” for “dosing.”
Then, for each individual in a) cilastatin-treated group and b) normal saline-treated group (control group), urine was pooled using a metabolic cage for 24 hours after phenylhydrazine dosing, and the obtained urine samples were collected.
The urine and serum were stored at −80° C. until analysis and measured for urinary KIM-1 and blood urea nitrogen. The measurements were conducted by Oriental Yeast Co., Ltd.

[4] = molecular target: binding between α1M and megalin (Rattus norvegicus, UniProt P98158); conditions: QCM, 1 mg/200 μL cilastatin injected into buffer in advance, rat α1M (FIG. 2-2)
Text: (§3) Binding specificity between megalin and each ligand (hemoglobin, α1M, Hx), and the possible binding inhibition by cilastatin were verified using the quartz crystal microbalance (QCM) method by reference to the method described in PTL 2.

mice (C57BL/6) = conditions: cilastatin sodium 400 mg/kg i.p.
Protocol: Cilastatin was administered to mice and changes in concentrations of each ligand in urine were observed.
Five mice (male, aged 12 weeks C57BL/6) were intraperitoneally administered with 400 mg/kg (diluted in 100 μL, of normal saline, cilastatin-treated group) of cilastatin sodium (Sigma-Aldrich Japan K.K., C5743), and then put in a metabolic cage for 3 hours to collect urine, and the urines of 5 mice were combined. Additionally, 100 μL, of normal saline was administered to another group of 5 mice (control group), and the same experiment as above was conducted.
Proteins were isolated from the obtained urine samples by electrophoresis (SDS-polyacrylamide gel), reductively alkylated (using dithiothreitol and iodoacetamide), digested with trypsin, and the obtained peptides were extracted to obtain a solid.
To the obtained solid, 15 μL, of 0.3% formic acid (FA) was added, shaken for 5 minutes, sonicated for 1 minute, and shaken again for 5 minutes. The resultant mixture was spun down, applied to a membrane filter having a pore diameter of 0.45 μm (ULtra free-MC, HV, 0.45 μm, Millipore), centrifuged at 10,000 rpm for 5 minutes, and the sample passed through the filter was subjected to LCMS analysis.
The analysis method described in Ohara et al., 2018, PLoS One, vol. 13, 1, e0204160 was referred to. The analysis method is shown below.
AnaLyst® TF1.6 (AB SCIEX) was used as an LCMS/MS data acquisition and analysis software, and the obtained raw data were converted to a peak list file (mgf file format), whereby MS/MS Ion Search (MIS search) was conducted using Matrix Science Mascot daemon, Mascot server 2.2.1. The sequence data base used was Uniprot, Swiss-Prot. Significance threshold was set to 0.05 (false discovery rate of less than 5%), and the proteins having 2 or more peptides exceeding the identification standard were listed as identified proteins.
Raw data were acquired 2 times per sample at LCMS to cover the issue of analysis reproducibility at LCMS, and the peak list files obtained from the 2 runs were combined and analyzed using Mascot (Ohara et al., 2018, PLoS One, vol. 13, 1, e0204160).
To the proteins identified in common in 2 groups when compared, the spectral count method was used, which is a label-free comparative, semiquantitative analysis method utilizing a principle that a large number of peptide fragments will be identified in those expressed at high levels, resulting in the increase in the number of MS/MS. In other words, the proteins identified in both of the cilastatin-treated group and control group were calculated for an SpC/L ratio (spectral abundance factor: SAF) of the cilastatin-treated group/control group, and the proteins having an SpC/L ratio of 2.0 or more were listed as the proteins abundant in urine of the cilastatin-treated group.

[5] = molecular target: binding between megalin and hemoglobin (Rattus norvegicus, UniProt P98158); conditions: QCM, 1 mg cilastatin injected into 200 μL buffer in advance, rat hemoglobin (FIG. 2-1)
Text: as §3
(§4) For the ligands to be verified, hemoglobin (LifeSpan Biosciences Inc., Rat Hemoglobin Native Protein, LS-G11201) and Hx (Sino Biological Inc., Rat Hemopexin/HPX protein (His Tag 81025-R08H)) were used. […]
(§5) After each of the ligand- or BSA-immobilized quartz crystal sensor was mounted in the measurement instrument AFFINIX® Q8 (Initium Inc.) and the frequency was confirmed to be stable, 8 μL of a 0.1 mg/mL solution of megalin purified from Sprague-Dawley (SD) rat kidneys according to the method of Orlando et al. was injected and frequency was measured with time.
(§6) More specifically, the megalin solution was reacted to each of the ligand-immobilized quartz crystal sensors placed in a chamber with 200 μL of buffer, and frequency was measured.
(§7) Additionally, 1 mg of cilastatin was injected into buffer in advance, each of the ligand-immobilized quartz crystal sensors was mounted in the measurement instrument, and after the frequency was confirmed to be stable, the megalin solution was injected and frequency was measured with time, whereby the antagonistic activity of cilastatin against the binding of each ligand to megalin was analyzed. […]

[6] = molecular target: binding between megalin and Hx (Rattus norvegicus, UniProt P98158); conditions: QCM, 1 mg cilastatin injected into 200 μL buffer in advance, rat Hx (FIG. 2-1)
Text: as §3, §4, §5, §6, §7

[7] = mice, 3 h urine pooled from 5 mice, LCMS

binding between megalin and Hx, sequence (P98158 26-4660): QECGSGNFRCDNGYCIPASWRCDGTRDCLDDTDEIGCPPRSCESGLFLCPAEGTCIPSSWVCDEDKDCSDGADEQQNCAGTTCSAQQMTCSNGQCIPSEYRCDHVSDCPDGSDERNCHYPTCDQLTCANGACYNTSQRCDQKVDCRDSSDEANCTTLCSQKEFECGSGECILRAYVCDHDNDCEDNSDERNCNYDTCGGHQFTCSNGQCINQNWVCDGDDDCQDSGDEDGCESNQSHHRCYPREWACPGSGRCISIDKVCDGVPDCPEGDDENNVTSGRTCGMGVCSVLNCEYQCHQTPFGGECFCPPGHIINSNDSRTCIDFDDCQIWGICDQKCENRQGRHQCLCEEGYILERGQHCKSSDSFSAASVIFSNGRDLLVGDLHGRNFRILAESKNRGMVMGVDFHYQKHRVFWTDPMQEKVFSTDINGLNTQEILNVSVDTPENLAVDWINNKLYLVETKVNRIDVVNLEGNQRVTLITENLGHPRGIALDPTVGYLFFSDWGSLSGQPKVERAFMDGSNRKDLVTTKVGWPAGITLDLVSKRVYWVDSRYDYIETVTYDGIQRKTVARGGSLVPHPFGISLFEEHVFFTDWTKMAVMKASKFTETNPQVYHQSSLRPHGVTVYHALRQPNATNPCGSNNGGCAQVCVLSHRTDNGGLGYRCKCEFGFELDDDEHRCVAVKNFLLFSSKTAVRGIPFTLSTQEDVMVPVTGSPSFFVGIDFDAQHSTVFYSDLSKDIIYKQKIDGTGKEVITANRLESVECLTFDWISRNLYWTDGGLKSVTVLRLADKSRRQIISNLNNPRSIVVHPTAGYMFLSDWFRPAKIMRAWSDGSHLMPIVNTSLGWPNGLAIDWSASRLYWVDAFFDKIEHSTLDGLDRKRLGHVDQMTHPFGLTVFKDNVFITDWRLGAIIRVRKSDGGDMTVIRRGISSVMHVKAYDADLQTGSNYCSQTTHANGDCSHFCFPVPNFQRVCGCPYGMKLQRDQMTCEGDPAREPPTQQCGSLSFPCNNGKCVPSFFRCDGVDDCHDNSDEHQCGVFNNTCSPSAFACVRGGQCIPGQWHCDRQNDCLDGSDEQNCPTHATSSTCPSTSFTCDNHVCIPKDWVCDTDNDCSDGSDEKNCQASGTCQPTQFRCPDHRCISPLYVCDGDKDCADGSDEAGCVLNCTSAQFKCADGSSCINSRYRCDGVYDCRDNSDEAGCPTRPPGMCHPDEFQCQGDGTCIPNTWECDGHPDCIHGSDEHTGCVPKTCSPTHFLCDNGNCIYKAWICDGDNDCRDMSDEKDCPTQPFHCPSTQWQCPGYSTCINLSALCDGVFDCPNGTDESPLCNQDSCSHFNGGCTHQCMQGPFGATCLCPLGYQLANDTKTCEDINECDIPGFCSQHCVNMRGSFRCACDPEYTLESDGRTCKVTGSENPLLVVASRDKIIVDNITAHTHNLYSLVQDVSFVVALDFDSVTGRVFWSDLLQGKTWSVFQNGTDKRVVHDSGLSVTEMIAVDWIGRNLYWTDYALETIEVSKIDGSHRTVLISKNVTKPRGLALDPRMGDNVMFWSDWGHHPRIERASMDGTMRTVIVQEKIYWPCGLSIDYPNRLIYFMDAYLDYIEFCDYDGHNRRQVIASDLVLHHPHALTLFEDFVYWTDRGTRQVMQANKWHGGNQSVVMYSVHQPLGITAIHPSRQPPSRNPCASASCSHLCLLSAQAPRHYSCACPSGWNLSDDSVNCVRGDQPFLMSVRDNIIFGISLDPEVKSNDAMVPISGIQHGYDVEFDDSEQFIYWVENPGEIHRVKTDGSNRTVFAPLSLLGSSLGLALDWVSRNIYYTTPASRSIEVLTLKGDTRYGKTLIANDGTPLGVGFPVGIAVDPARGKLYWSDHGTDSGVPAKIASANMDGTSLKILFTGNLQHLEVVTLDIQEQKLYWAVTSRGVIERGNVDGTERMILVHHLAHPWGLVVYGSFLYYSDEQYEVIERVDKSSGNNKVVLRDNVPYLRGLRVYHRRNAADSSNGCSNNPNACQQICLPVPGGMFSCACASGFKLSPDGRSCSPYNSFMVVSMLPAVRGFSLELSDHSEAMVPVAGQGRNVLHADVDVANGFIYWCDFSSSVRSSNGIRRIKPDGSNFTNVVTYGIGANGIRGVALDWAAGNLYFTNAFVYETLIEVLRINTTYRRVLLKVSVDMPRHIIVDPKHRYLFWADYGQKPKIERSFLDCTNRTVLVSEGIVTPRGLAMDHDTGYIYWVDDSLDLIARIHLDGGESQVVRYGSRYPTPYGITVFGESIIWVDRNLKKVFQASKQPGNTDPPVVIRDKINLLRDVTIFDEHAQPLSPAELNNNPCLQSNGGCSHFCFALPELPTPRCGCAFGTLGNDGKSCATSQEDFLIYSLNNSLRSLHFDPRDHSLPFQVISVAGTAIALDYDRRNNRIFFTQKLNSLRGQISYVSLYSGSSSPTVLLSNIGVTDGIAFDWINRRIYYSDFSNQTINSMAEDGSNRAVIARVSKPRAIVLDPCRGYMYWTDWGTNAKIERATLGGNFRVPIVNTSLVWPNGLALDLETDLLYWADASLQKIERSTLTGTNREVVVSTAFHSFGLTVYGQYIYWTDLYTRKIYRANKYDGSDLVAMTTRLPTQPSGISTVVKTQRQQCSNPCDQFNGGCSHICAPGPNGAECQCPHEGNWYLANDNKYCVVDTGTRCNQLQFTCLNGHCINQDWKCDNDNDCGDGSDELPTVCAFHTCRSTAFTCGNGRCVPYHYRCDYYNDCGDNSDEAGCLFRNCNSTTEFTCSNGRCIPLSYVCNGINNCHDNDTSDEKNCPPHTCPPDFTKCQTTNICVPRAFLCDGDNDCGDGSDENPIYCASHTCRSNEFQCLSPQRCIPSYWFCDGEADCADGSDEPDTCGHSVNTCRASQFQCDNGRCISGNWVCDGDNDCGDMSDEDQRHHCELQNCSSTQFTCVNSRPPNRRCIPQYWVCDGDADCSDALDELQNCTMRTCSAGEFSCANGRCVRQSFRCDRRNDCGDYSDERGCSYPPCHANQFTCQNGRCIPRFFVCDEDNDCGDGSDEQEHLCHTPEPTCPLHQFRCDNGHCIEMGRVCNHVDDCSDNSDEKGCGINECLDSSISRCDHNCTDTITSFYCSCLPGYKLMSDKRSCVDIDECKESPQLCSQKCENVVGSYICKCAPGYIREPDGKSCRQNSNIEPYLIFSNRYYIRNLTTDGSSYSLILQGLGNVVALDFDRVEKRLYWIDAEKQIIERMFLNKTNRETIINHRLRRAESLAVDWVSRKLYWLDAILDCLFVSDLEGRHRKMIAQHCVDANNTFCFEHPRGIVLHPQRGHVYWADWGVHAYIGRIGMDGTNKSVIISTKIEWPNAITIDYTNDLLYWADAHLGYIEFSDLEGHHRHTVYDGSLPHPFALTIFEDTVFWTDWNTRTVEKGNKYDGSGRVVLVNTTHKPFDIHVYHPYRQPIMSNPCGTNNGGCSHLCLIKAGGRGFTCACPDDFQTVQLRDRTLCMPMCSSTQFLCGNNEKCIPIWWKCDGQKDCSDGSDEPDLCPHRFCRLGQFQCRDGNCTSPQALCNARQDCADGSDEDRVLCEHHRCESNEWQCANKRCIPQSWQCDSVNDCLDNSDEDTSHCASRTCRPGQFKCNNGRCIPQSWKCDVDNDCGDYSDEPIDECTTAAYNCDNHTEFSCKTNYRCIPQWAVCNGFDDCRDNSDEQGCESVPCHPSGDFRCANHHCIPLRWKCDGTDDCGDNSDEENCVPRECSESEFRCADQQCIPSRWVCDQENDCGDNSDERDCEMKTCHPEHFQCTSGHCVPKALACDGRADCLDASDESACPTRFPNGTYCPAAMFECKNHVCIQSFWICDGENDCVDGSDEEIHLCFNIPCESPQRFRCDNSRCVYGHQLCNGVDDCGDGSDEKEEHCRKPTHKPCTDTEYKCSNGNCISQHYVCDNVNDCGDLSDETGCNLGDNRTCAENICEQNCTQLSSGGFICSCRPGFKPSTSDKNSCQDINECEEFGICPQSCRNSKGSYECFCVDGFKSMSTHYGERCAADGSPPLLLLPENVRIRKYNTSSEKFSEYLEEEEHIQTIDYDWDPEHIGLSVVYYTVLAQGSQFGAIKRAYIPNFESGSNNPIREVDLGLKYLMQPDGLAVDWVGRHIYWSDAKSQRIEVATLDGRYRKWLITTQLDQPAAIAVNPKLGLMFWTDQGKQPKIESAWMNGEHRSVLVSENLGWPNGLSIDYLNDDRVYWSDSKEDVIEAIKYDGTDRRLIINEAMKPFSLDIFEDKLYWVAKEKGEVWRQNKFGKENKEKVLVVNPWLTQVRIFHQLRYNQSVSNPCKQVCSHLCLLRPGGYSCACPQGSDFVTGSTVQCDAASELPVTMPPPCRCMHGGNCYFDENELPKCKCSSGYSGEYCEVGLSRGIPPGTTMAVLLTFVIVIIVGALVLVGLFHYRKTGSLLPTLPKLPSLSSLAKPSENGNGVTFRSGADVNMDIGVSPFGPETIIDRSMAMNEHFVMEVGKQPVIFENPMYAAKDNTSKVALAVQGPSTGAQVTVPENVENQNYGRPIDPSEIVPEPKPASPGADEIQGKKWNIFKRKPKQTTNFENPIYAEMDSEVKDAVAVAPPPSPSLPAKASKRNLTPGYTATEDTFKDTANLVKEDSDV
binding between α1M and megalin, sequence (P98158 26-4660): as above
binding between megalin and hemoglobin, sequence (P98158 26-4660): as above

binding of α1M to megalin-immobilized quartz crystal sensor (drop of quartz crystal signals) [4]: inhibited
binding of megalin to hemoglobin-immobilized quartz crystal sensor (drop of quartz crystal signals) [5]: inhibited
binding of megalin to Hx-immobilized quartz crystal sensor (drop of quartz crystal signals) [6]: inhibited
SMILES: CC1(C)C[C@@H]1C(=O)N/C(=C\CCCCSC[C@H](N)C(=O)O)C(=O)O [cilastatin, (Z)-7-[[(R)-2-Amino-2-carboxyethyl]thio]-2-[[[(S)-2,2-dimethylcyclopropyl]carbonyl]amino]-2-heptenoic acid]
amounts of hemoglobin taken up into kidney tissues (hemolysis model mice [1]): reduced
amounts of α1M taken up into kidney tissues (hemolysis model mice [2]): reduced
urinary KIM-1 (hemolysis model mice [3]; 24 h pooled urine): lower in the cilastatin (CS)-treated group than the control group
blood urea nitrogen (hemolysis model mice [3]; serum at 24 h): lower in the cilastatin (CS)-treated group than the control group
uptake of α1M and Hx into kidney tissues (mice (C57BL/6); concluded from higher urinary concentrations in the cilastatin-treated group): inhibits
SpC/L ratio (cilastatin-treated group/control group), urinary Albumin (mice (C57BL/6); [7]): 1.10
SpC/L ratio (cilastatin-treated group/control group), urinary Clusterin (mice (C57BL/6); [7]): 0.73
SpC/L ratio (cilastatin-treated group/control group), urinary Hx (mice (C57BL/6); [7]): 2.33
SpC/L ratio (cilastatin-treated group/control group), urinary Transcobalamin-2 (mice (C57BL/6); [7]): 2.33
SpC/L ratio (cilastatin-treated group/control group), urinary Transthyretin (mice (C57BL/6); [7]): 1.00
SpC/L ratio (cilastatin-treated group/control group), urinary Vitamin D-binding protein (mice (C57BL/6); [7]): 0.80
SpC/L ratio (cilastatin-treated group/control group), urinary α1M (mice (C57BL/6); [7]): 3.67
